Measurements reported in patent US11372007B2, “Method of detecting biological material, and chemiluminescent indicator used therein” (Osaka University, priority 2017, dated 2022).

How the values were obtained:
UnaG protein = UnaG protein (wild type; UniProtKB/Swiss-Prot: P0DM59.1, GenBank: AB763906.1); conditions: indirect bilirubin; Kumagai et al., Cell 2013, 153, 1602-1611; read-out: dissociation constant; cited from earlier work
[1] = molecular target: T1, UnaG (CΔ0)-NLuc (NΔ1) fusion protein (wild-type chemiluminescent bilirubin indicator, linker GT), SEQ ID NO: 12 (Anguilla japonica, UniProt P0DM59); experiment: titration curve of the wild-type chemiluminescent bilirubin indicator with bilirubin (luminescence spectra, Hill fit); type: binding
T1 construct: made in house; host or cells: E. coli JM109 (DE3)
Protocol: The base sequence of this UnaG (CΔ0)-NLuc (NΔ1) fusion protein is represented by SEQ ID NO: 11, and the amino acid sequence of the same is represented by SEQ ID NO: 12.
The JM109 (DE3) strain transformed with the UnaG (CΔ0)-NLuc (NΔ1) fusion protein was cultured at 23° C. for 60 hours in 200 mL of LB medium containing 100 μg/mL Carvenisillin solution. After harvesting, the E. coli cells were disrupted by the French press method and purified by affinity chromatography using a Ni-NTA column (QIAGEN). Furthermore, in order to remove excess imidazole, a gel filtration column (PD-10, GE HealthCare) was used. The protein concentration was measured by the Bradford method.
500 μL of the purified UnaG (CΔ0)-NLuc (NΔ1) fusion protein was added to a 15-mL Falcon tube and frozen with liquid nitrogen. Thereafter, a powder of the protein solution was obtained by a lyophilizer. […]
0.01 nM, 0.05 nM, 0.1 nM, 0.5 nM, 1 nM, 2.5 nM, 5 nM, or 10 nM bilirubin (BR) solution and Coelenterazine-h at a final concentration of 5 μM were mixed with the UnaG(CΔ0)-NLuc(NΔ1) fusion protein at a final concentration of 5 nM, and luminescence spectra were measured using a multichannel spectroscope (PMA-12, manufactured by Hamamatsu Photonics K.K.) or a plate reader. […] Mean values of measured values obtained by three independent measurements were plotted, and then fitted as per the Hill equation. […]

T1 sequence (P0DM59 with tags, fused parts or gaps): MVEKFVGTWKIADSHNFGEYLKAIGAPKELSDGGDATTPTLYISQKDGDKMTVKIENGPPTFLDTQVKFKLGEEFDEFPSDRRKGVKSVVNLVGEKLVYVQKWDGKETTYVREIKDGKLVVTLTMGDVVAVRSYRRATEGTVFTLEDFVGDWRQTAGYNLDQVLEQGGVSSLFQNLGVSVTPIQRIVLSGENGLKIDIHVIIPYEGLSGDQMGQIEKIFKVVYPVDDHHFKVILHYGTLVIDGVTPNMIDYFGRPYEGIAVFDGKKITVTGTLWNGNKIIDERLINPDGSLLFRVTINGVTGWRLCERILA

Compound | Kd (UnaG protein) [nM] | Kd ([1]; fusion protein 5 nM, bilirubin 0.01-10 nM, Coelenterazine-h 5 μM, mean of three independent measurements, fitted as per the Hill equation) [nM] | affinity for bilirubin (dissociation constant, Kd value), change on storage ([1]; lyophilized sample dissolved in water, stored at room temperature)
C=CC1=C(C)/C(=C/c2[nH]c(Cc3[nH]c(/C=C4\NC(=O)C(C)=C4C=C)c(C)c3CCC(=O)O)c(CCC(=O)O)c2C)NC1=O [indirect bilirubin] | 0.098 |  | 
C=CC1=C(C)/C(=C/c2[nH]c(Cc3[nH]c(/C=C4\NC(=O)C(C)=C4C=C)c(C)c3CCC(=O)O)c(CCC(=O)O)c2C)NC1=O [bilirubin] |  | 3.05 | the affinity was slightly reduced
